Measurements as given in US20250214991A1 (Oncopia Therapeutics, Inc. d/b/a/ SK Life Science Labs, priority 2022, published 2025).

Tests used:
CRBN/DDB1 = CRBN/DDB1 (Homo sapiens (Human), UniProt Q96SW2); experiment: IC50 measurements for binding to CRBN/DDB1 (HTRF); settings: His tagged CRBN+DDB, Cy5-labeled Thalidomide probe, one hour
In short: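 HTRF competition binding with 2 nM His-tagged CRBN-DDB1 complex, 60 nM Cy5-thalidomide probe and 0.4 nM anti-His Tb cryptate in 50 mM HEPES pH 7.5, 1 mM TCEP, 0.01% Brij-35, 50 mM NaCl, 0.1% BSA. Read after 1 h at room temperature; IC50 from four-parameter dose-response fit.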

IKZF2 [1] = biological target: T1, IKZF2 (Homo sapiens (Human), UniProt Q96SW2+Q9UKS7); experiment: In vitro IKZF2 FACS Assay in Jurkat cells; assay type: cell-based; settings: 24 hrs; for DC50: half maximal degradation concentration; for Dmax: maximal degradation percentage
Method: In vitro IKZF2 FACS Assay
DC50, A: <1 nM; B: 1-10 nM; C: 10-100 nM; D: 100-1000 nM; E: >1000 nM. Dmax, A: >80%; B: 60-80%; C: 40-60%; D: 20-40%; E: <20%.

IKZF2 [2] = biological target: T1, IKZF2; experiment: In vitro IKZF2 HiBit Assay (HEK293T Flp-in-HiBiT cells); assay type: cell-based; settings: HEK293T Flp-in-HiBiT cells, 6 hrs incubation; for DC50: read-out: IKZF2 HiBit DC50; for Dmax: HEK-293T, read-out: IKZF2 HiBit Dmax (%)
In short: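 HEK293T Flp-in cells carrying an endogenous N-terminal HiBiT tag on IKZF2 were exposed to compound for 6 h at 0.1% DMSO. The dilution series was 11 doses at 3-fold, diluted from 1 mM. Nano-Glo HiBiT lytic luminescence, normalized to DMSO, gave DC50 for 50% degradation and Dmax across the concentration range, both reported in letter bins.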

IKZF1 = IKZF1 (Homo sapiens (Human), UniProt Q13422+Q96SW2); experiment: In vitro IKZF1 HiBit Assay (HEK293T Flp-in-HiBiT-IKZF1 stable cell line); assay type: cell-based; settings: HEK293T Flp-in-HiBiT-IKZF1 stable cell line, 6 hrs incubation; for DC50: read-out: IKZF1 HiBit DC50; for Dmax: HEK-293T, read-out: IKZF1 HiBit Dmax (%)
In short: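 HEK293T Flp-in cells carrying N-terminal HiBiT-tagged IKZF1 were exposed to compound (0.1% DMSO) for 6 h at 3000 cells/well. HiBiT luminescence was read after lytic LgBiT detection. DC50 and Dmax were taken from DMSO-normalized dose-response curves.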

IKZF1, sequence (Q13422 whole entry): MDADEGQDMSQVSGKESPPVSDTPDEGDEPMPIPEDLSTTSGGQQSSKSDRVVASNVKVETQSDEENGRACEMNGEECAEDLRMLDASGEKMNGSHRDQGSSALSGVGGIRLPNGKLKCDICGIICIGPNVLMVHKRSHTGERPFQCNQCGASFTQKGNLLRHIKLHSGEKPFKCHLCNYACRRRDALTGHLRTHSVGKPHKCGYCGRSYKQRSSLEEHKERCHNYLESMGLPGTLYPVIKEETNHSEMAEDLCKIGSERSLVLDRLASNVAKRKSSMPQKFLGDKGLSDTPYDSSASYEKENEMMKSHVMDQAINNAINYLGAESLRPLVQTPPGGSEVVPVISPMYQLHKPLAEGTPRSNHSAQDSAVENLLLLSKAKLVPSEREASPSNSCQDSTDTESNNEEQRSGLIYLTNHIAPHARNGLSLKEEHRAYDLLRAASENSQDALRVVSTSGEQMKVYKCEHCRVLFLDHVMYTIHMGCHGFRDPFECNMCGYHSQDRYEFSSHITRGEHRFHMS
IKZF1, sequence (Q96SW2 whole entry): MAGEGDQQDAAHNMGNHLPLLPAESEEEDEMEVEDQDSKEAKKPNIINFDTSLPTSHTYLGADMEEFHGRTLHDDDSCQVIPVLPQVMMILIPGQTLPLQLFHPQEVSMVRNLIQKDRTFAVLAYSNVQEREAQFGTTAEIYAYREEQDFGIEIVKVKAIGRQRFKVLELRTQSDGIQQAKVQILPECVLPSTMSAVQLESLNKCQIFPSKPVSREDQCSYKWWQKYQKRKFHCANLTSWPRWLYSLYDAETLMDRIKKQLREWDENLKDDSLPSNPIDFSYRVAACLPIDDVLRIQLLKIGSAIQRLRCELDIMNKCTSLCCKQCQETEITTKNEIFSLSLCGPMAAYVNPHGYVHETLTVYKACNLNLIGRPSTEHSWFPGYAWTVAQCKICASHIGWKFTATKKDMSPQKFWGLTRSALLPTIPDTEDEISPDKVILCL
IKZF1, sequence (Q16531 2-1140 partner): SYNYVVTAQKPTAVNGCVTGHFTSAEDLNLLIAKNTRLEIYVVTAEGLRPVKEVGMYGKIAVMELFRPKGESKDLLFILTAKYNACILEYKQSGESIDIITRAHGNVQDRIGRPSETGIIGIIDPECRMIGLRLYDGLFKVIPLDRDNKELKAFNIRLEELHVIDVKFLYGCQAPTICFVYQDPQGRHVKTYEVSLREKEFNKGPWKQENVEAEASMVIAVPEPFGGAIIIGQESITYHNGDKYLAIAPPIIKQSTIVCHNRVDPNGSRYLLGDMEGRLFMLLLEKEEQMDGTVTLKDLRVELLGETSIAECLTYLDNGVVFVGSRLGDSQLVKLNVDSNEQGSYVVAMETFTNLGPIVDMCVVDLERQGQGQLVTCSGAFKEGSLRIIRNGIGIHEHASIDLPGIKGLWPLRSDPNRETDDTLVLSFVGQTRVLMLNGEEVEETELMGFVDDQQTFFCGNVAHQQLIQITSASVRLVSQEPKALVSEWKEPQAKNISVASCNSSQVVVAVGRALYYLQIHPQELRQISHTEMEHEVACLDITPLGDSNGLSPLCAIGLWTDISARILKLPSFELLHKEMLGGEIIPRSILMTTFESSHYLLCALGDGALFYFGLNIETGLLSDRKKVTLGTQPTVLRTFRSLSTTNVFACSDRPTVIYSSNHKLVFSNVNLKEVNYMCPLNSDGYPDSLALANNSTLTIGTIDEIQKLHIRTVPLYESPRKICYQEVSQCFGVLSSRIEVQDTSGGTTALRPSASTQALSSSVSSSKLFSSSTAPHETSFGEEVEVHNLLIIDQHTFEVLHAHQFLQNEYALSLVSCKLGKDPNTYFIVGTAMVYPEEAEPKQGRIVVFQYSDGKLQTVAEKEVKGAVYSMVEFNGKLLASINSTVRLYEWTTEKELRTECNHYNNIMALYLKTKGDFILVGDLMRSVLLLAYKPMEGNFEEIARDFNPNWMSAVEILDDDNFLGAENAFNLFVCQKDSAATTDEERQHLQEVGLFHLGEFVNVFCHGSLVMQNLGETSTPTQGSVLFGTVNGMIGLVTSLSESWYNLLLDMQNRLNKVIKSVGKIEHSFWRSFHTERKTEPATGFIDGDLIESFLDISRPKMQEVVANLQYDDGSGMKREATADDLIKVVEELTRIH
CRBN/DDB1, sequence (Q96SW2 whole entry, species assumed): as the sequence (Q96SW2 whole entry) above
CRBN/DDB1, sequence (Q16531 whole entry partner, species assumed): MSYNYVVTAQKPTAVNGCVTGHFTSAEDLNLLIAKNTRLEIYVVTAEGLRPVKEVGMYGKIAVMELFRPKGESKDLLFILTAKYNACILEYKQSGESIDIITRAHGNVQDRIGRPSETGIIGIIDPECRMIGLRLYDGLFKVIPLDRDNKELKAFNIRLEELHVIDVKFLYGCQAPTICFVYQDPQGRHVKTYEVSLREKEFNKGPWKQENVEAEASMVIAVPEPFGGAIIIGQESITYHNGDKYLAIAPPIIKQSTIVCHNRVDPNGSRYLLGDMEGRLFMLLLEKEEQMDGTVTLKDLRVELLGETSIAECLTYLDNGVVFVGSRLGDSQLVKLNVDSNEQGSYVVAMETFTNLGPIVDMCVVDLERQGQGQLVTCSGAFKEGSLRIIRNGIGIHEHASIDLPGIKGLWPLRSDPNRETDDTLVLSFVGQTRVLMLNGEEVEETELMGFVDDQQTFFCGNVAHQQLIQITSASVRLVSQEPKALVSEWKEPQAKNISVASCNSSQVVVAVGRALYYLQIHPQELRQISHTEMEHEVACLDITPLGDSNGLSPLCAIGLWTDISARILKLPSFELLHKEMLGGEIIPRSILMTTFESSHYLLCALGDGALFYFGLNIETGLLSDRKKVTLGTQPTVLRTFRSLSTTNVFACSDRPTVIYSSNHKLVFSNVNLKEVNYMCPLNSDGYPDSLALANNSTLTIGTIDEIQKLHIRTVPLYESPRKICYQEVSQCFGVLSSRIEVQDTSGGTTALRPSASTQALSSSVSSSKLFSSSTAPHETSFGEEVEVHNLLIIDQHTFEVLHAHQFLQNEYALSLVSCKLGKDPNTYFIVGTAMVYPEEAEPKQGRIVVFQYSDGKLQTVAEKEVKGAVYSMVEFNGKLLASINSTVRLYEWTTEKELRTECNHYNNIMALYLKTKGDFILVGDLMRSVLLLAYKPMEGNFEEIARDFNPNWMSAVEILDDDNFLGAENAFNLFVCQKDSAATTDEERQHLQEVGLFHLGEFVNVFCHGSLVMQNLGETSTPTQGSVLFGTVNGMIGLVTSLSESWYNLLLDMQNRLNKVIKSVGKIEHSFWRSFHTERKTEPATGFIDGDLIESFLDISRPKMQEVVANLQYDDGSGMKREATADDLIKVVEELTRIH
T1 sequence (Q9UKS7 whole entry): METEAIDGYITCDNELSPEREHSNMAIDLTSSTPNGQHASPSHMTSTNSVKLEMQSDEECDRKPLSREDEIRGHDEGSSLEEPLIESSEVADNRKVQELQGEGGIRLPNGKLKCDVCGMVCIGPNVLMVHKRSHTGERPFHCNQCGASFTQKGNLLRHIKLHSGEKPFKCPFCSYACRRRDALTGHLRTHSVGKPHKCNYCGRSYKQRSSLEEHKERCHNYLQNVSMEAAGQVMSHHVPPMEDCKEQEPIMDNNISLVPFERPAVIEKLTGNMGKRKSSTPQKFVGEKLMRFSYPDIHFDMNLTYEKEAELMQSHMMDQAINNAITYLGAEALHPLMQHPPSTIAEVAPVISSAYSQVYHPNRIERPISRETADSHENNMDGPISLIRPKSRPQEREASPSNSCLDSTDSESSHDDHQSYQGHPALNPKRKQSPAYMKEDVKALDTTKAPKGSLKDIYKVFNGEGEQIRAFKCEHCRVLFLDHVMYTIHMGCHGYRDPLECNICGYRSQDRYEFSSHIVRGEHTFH
T1 sequence (Q96SW2 whole entry): as the sequence (Q96SW2 whole entry) above
T1 sequence (Q16531 2-1140 partner): as the sequence (Q16531 2-1140 partner) above

| Compound | IC50 (CRBN/DDB1) [nM] | DC50 (IKZF2 [1]) [nM] | Dmax (IKZF2 [1]) [%] | DC50 (IKZF2 [2]) [nM] | Dmax (IKZF2 [2]) [%] | DC50 (IKZF1) [nM] | Dmax (IKZF1) [%] |
| --- | --- | --- | --- | --- | --- | --- | --- |
| O=C1CCC(N2Cc3cc(-c4cc(CN5CC(F)C5)c5ccn(C6COC6)c5n4)ccc3C2=O)C(=O)N1 (stereo not drawn) [Example 161, 3-(5-(4-((3-fluoroazetidin-1-yl)methyl)-1-(oxetan-3-yl)-1H-pyrrolo[2,3-b]pyridin-6-yl)-1-oxoisoindolin-2-yl) piperidine-2,6-dione] | 100 to 500 | 10 to 100 | 60 to 80 | 1 to 10 | 60 to 80 | > 10000 | < 20 |
| O=C1CCC(N2Cc3c(ccc(-c4cc(CN5CCCC5)c5ccn(C6COC6)c5n4)c3Cl)C2=O)C(=O)N1 (stereo not drawn) [Example 228, 3-(4-chloro-5-(1-(oxetan-3-yl)-4-(pyrrolidin-1-ylmethyl)-1H-pyrrolo[2,3-b]pyridin-6-yl)-1-oxoisoindolin-2-yl) piperidine-2,6-dione] | 100 to 500 | 10 to 100 | 60 to 80 | 1 to 10 | 60 to 80 | > 10000 | < 20 |
| O=C1CCC(N2Cc3c(ccc(-c4cc(CN5CCCC5)c5ccn(C6CS(=O)(=O)C6)c5n4)c3Cl)C2=O)C(=O)N1 (stereo not drawn) [Example 230, 3-(4-chloro-5-(1-(1,1-dioxidothietan-3-yl)-4-(pyrrolidin-1-ylmethyl)-1H-pyrrolo[2,3-b]pyridin-6-yl)-1-oxoisoindolin-2-yl) piperidine-2,6-dione] | 100 to 500 | 1 to 10 | > 80 | 1 to 10 | 60 to 80 | > 10000 | < 20 |
| O=C1CCC(N2Cc3cc(-c4cc(CN5CCCC5)c5ncn(C6CCC6)c5n4)ccc3C2=O)C(=O)N1 (stereo not drawn) [Example 209, 3-(5-(3-cyclobutyl-7-(pyrrolidin-1-ylmethyl)-3H-imidazo[4,5-b]pyridin-5-yl)-1-oxoisoindolin-2-yl) piperidine-2,6-dione] | 1000 to 5000 | 10 to 100 | > 80 | 1 to 10 | > 80 | > 10000 | < 20 |
| Nc1n[nH]c2c(CN3CC4COCC(C4)C3)cc(-c3ccc4c(c3)CN(C3CCC(=O)NC3=O)C4=O)nc12 (stereo not drawn) [Example 215, 3-(5-(7-((3-oxa-7-azabicyclo[3.3.1]nonan-7-yl)methyl)-3-amino-1H-pyrazolo[4,3-b]pyridin-5-yl)-1-oxoisoindolin-2-yl) piperidine-2,6-dione] | 100 to 500 | 10 to 100 | > 80 | 10 to 100 | > 80 | 100 to 1000 | 20 to 40 |
| Nc1n[nH]c2c(CN3CCC(F)CC3)cc(-c3ccc4c(c3)CN(C3CCC(=O)NC3=O)C4=O)nc12 (stereo not drawn) [Example 212, 3-(5-(3-amino-7-((4-fluoropiperidin-1-yl)methyl)-1H-pyrazolo[4,3-b]pyridin-5-yl)-1-oxoisoindolin-2-yl) piperidine-2,6-dione] | < 100 | 10 to 100 | > 80 | 1 to 10 | 60 to 80 | 1 to 10 | 20 to 40 |
| Nc1n[nH]c2c(CN3CCC(O)CC3)cc(-c3ccc4c(c3)CN(C3CCC(=O)NC3=O)C4=O)nc12 (stereo not drawn) [Example 205, 3-(5-(3-amino-7-((4-hydroxypiperidin-1-yl)methyl)-1H-pyrazolo[4,3-b]pyridin-5-yl)-1-oxoisoindolin-2-yl) piperidine-2,6-dione] | 500 to 1000 | 100 to 1000 | 60 to 80 | 10 to 100 | 60 to 80 | 1000 to 10000 | 20 to 40 |
| O=C1CCC(N2Cc3cc(-c4nc5[nH]ccc5c(CN5CCCC5)c4Cl)ccc3C2=O)C(=O)N1 (stereo not drawn) [Example 221, 3-(5-(5-chloro-4-(pyrrolidin-1-ylmethyl)-1H-pyrrolo[2,3-b]pyridin-6-yl)-1-oxoisoindolin-2-yl) piperidine-2,6-dione] | 100 to 500 | 1 to 10 | > 80 | 1 to 10 | > 80 | > 10000 | < 20 |
| O=C1CCC(N2Cc3c(ccc(-c4cc(CN5CCCC5)c5ccn(C6CS(=O)(=O)C6)c5n4)c3F)C2=O)C(=O)N1 (stereo not drawn) [Example 222, 3-(5-(1-(1,1-dioxidothietan-3-yl)-4-(pyrrolidin-1-ylmethyl)-1H-pyrrolo[2,3-b]pyridin-6-yl)-4-fluoro-1-oxoisoindolin-2-yl) piperidine-2,6-dione] | 100 to 500 | 1 to 10 | > 80 | 1 to 10 | > 80 | 10 to 100 | 20 to 40 |
| Nc1nn(C2CC2)c2c(CN3CCCC3)cc(-c3ccc4c(c3)CN(C3CCC(=O)NC3=O)C4=O)nc12 (stereo not drawn) [Example 210, 3-(5-(3-amino-1-cyclopropyl-7-(pyrrolidin-1-ylmethyl)-1H-pyrazolo[4,3-b]pyridin-5-yl)-1-oxoisoindolin-2-yl) piperidine-2,6-dione] | 500 to 1000 | 1 to 10 | > 80 | 1 to 10 | > 80 | 100 to 1000 | 40 to 60 |
| O=C1CCC(N2Cc3cc(-c4cc(CN5CCC(F)CC5)c5cc[nH]c5n4)ccc3C2=O)C(=O)N1 (stereo not drawn) [Example 116, 3-(5-(4-((4-fluoropiperidin-1-yl)methyl)-1H-pyrrolo[2,3-b]pyridin-6-yl)-1-oxoisoindolin-2-yl) piperidine-2,6-dione] | 100 to 500 | 1 to 10 | > 80 | < 1 | > 80 | 1 to 10 | 20 to 40 |
| Cn1ccc2c(CN3CCCC3)cc(-c3ccc4c(c3)CN(C3CCC(=O)NC3=O)C4=O)nc21 (stereo not drawn) [Example 55, 3-(5-(1-methyl-4-(pyrrolidin-1-ylmethyl)-1H-pyrrolo[2,3-b]pyridin-6-yl)-1-oxoisoindolin-2-yl) piperidine-2,6-dione] | 100 to 500 | < 1 | > 80 | < 1 | > 80 | > 10000 | 20 to 40 |
| CC(C)Nc1n[nH]c2c(CN3CCCC3)cc(-c3ccc4c(c3F)CN(C3CCC(=O)NC3=O)C4=O)nc12 (stereo not drawn) [Example 226, 3-(4-fluoro-5-(3-(isopropylamino)-7-(pyrrolidin-1-ylmethyl)-1H-pyrazolo[4,3-b]pyridin-5-yl)-1-oxoisoindolin-2-yl) piperidine-2,6-dione] | 100 to 500 | 1 to 10 | > 80 | < 1 | > 80 | > 10000 | < 20 |
| O=C1CCC(N2Cc3c(ccc(-c4cc(CN5CCCC5)c5ccn(C6COC6)c5n4)c3F)C2=O)C(=O)N1 (stereo not drawn) [Example 223, 3-(4-fluoro-5-(1-(oxetan-3-yl)-4-(pyrrolidin-1-ylmethyl)-1H-pyrrolo[2,3-b]pyridin-6-yl)-1-oxoisoindolin-2-yl) piperidine-2,6-dione] | 100 to 500 | 1 to 10 | > 80 | < 1 | 60 to 80 | 1 to 10 | 20 to 40 |
| O=C1CCC(N2Cc3cc(-c4cc(CN5CCCC5)c5ccn(C6CCOC6)c5n4)ccc3C2=O)C(=O)N1 (stereo not drawn) [Example 170, 3-(1-oxo-5-(4-(pyrrolidin-1-ylmethyl)-1-(tetrahydrofuran-3-yl)-1H-pyrrolo[2,3-b]pyridin-6-yl)isoindolin-2-yl) piperidine-2,6-dione] | 500 to 1000 | 10 to 100 | 60 to 80 | 1 to 10 | 60 to 80 | > 10000 | < 20 |
